Results as given in patent US7659104B2, “Solvent tolerant microorganisms and methods of isolation” (E.I. du Pont de Nemours and Company, priority 2006, dated 2010).

Tests used:
[1] = system: isolates listed in Table 5 (PN0048, PN0197-10, PN0133); test: Growth on solid medium (S20 agar replica plating), isolates listed in Table 5; type: cell-based, Enterococcus; details: 37° C., 24 to 72 h
Description: Phylogenetic characterization of the microbial consortium in the anaerobic bioreactor and isolation of pure strains of 1-butanol resistant bacteria from this bioreactor were performed as follows. Samples of cells taken from the bioreactor at various times and from the bioreactor waste jug were serially diluted, and the serial dilutions were plated on S20 agar medium (S20 medium with 1.6% DifCo™ Agar, Noble-Solidifying agent) without 1-butanol. Colonies were then inoculated from the S20 agar medium into 1.2 mL of S20 medium without 1-butanol in the wells of a square-well microtiter plate (Beckman Coulter Inc, Fullerton, Calif.; Catalog No. 069681). […] Butanol tolerance was determined by growth in the presence of 1-butanol as determined by measuring increases in optical density at 595 nm (OD595) on a microtiter plate reader (HTS 7000 Plus Bio Assay Reader, PerkinElmer Life and Analytical Sciences Inc., Wellesley, Mass.). Isolates that had OD595 readings in the range of 0.1 to 0.8 after growth for 48 h at 37° C. with shaking were selected for further tolerance testing. […] The IC50 values of the isolated strains were determined at 37° C., for 1-butanol, 2-butanol, isobutanol, 2-butanone (also called methyl ethyl ketone (MEK)) and ethanol, following the method described in Example 1.

[2] = system: most microorganisms described in the art; details: liquid medium; 37° C.; cited from earlier work
[3] = system: Lactococcus lactis overexpressing GroESL; details: Desmond et al.; equals 0.4% w/v; cited from earlier work
[4] = system: Lactobacillus paracasei overexpressing GroESL; details: Desmond et al.; equals 0.4% w/v; cited from earlier work
[5] = system: enrichment cultures from environmental sludge samples; details: 37° C.
Description: Environmental sludge samples were obtained from wastewater treatment facilities at several E.I. du Pont de Nemours and Company sites. Enrichment cultures were established for each sample by inoculating a 125-mL screw cap Erlenmeyer flask with 1 mL of a sludge sample in 10 mL of minimal enrichment medium (i.e., 10 mM ammonium sulfate, 50 mM potassium phosphate buffer, pH 7.0, 2 mM MgCl2, 0.7 mM CaCl2, 50 μM MnCl2, 1 μM FeCl3, 1 μM ZnCl2, 1.72 μM CuCl2, 2.53 μM CoCl2, 2.42 μM Na2MoO4, 2 μM thiamine hydrochloride, 0.5% glucose, 0.5% fructose, 0.5% sucrose and 0.1% yeast extract). The enrichment cultures were incubated at 37° C. with shaking. After 24 h of incubation, the enrichment cultures were diluted 1:10 into fresh medium that contained 0.8%, 1.2% or 1.6% w/v 1-butanol (Sigma Chemical Co.; molecular biology grade (greater than or equal to 99% purity)). Incubation continued under the same conditions. Cultures with the highest level of 1-butanol allowing significant growth (e.g., a culture with an initial OD600 of approximately 0.1 that increased within 24 to 48 h to an OD600 of approximately 1.0) were then diluted 1:10 into fresh medium that contained higher levels of 1-butanol to select for increased tolerance to 1-butanol.

[6] = system: isolates from the enrichments; details: 37° C., microtiter plate
Description: (§1) Pure strains of 1-butanol resistant bacteria were isolated from the enrichment cultures as follows. The cells grown in an enrichment culture containing 1.2% or 1.6% 1-butanol were serially diluted, and the serial dilutions were plated on Luria Bertani (LB) agar medium, modified LB agar (i.e., LB agar supplemented with 0.5% sucrose, 0.5% glucose, 0.5% fructose, 0.5% sodium pyruvate, 2 mM MgCl2, 0.7 mM CaCl2, 50 μM MnCl2, 1 μM FeCl3, 1 μM ZnCl2, 1.72 μM CuCl2, 2.53 μM CoCl2, 2.42 μM Na2MoO4 and 2 μM thiamine hydrochloride) or minimal enrichment medium with 2.0% Difco™ Agar Noble, (BD Diagnostic Systems, Sparks, Md.), all without 1-butanol. Colonies were then inoculated from the agar medium into minimal enrichment medium (described above) without 1-butanol in the wells of a microtiter plate. […] The growth was monitored (by OD600) of isolates cultured in S30L medium (i.e., 10 mM ammonium sulfate, 5 mM potassium phosphate buffer, pH 7.0, 50 mM MOPS, pH 7.0, 2 mM MgCl2, 0.7 mM CaCl2, 50 μM MnCl2, 1 μM FeCl3, 1 μM ZnCl2, 1.72 μM CuCl2, 2.53 μM CoCl2, 2.42 μM Na2MoO4, 2 μM thiamine hydrochloride, 0.01 M glucose, and 0.2% yeast extract) at 37° C. in the absence (control) and in the presence of from 1.2% to 3.0% w/v of 1-butanol and the doubling time for each culture was calculated from the logarithmic part of the growth curve (doubling time=0.693/growth rate).

[7] = system: PN0110 (Enterococcus faecium); details: 37° C.
Description: as §1

[8] = liquid minimal enrichment medium, shaking

CCCCO [1-butanol]
concentration on solid medium at which isolates displayed growth [1]: ≥ 2.5%
concentration at which growth is totally inhibited [2]: less than 2.0 % w/v
concentration in whose presence strains were able to grow [3]: 0.5 % volume/volume (v/v)
concentration in whose presence strains were able to grow [4]: 0.5 % volume/volume (v/v)
concentration in whose presence none of the enrichment cultures grew ([5]; liquid medium): 2.0%
concentration in whose presence enrichment cultures from some sites grew [5, 8]: 1.6%
concentration in whose presence most of the enrichment cultures grew [5, 8]: 1.2%
concentration in liquid medium at which several isolates displayed growth [6]: at least 2.0%
concentration in solid medium on which the strain was able to grow [7]: 2.5 % w/v
